Reference: US20050266106A1, “Use of fermented wheat germ extract as anti-inflammatory agent” (priority 2002, published 2005)

Tested on: adjuvant arthritis (AA)
Assay: histological studies of joints of AA rats
Type: in vivo
Method: The affected joints of the right hind foot pad together with the epiphyses of the bones and the surrounding fibrous and muscular tissues were fixed in buffered neutral 4% formalin. Decalcification was performed by using EDTA and the samples were embedded into paraffin. 8 μm thin longitudinal sections were cut and the sections were stained with hemotoxiline (H) and eosine (E). In the selected positive control and in the treated cases an immunoperoxidase reaction was performed to show CD4 and CD8 positive T-lymphocytes. The used antibody was the product of Santa Cruz (Santa Cruz, Calif., USA), applied in 1:100 dilution.
There was no significant difference between the groups receiving 24-hour and 14-day pretreatment, respectively.

| Compound | Histological grade (average 1 to 3) of inflammatory infiltrates (2 × 0.5 mg/kg/day, 14-day pretreatment) | Histological grade (average 1 to 3) of inflammatory infiltrates (2 × 0.5 mg/kg/day, 24-hour pretreatment) | Histological grade (average 1 to 3) of inflammatory infiltrates (2 × 0.05 mg/kg/day, 14-day pretreatment) | Histological grade (average 1 to 3) of inflammatory infiltrates (2 × 0.05 mg/kg/day, 24-hour pretreatment) |
| --- | --- | --- | --- | --- |
| COc1ccc2c(c1)c(CC(=O)O)c(C)n2C(=O)c1ccc(Cl)cc1 [Indomethacin] | 1.2 | 1.0 | – | – |
| C[C@@H]1C[C@H]2[C@@H]3CCC4=CC(=O)C=C[C@]4(C)[C@@]3(F)[C@@H](O)C[C@]2(C)[C@@]1(O)C(=O)CO [Dexamethasone] | – | – | 1.2 | 1.4 |
